Data set [1] in a line: Molar enthalpy of transition or fusion. To be noted: Crystal; DSC.
The conditions of data set [2]: Crystal; DTA.

Each structure is given as a SMILES string. Numbers after ± are expanded uncertainties.

`Cc1cnc(NC(=O)C2=C(O)c3ccccc3S(=O)(=O)N2C)s1` [meloxicam]: the “Molar enthalpy of transition or fusion” value in data set [1] worked out at 10.5 ± 0.287 kcal/mol. The Normal melting temperature in data set [2] worked out at 263.6 ± 1.4 °C.

The record behind these values is the NIST ThermoML archive (doi:10.1016/j.fluid.2011.03.012).
